The source of these data is patent publication US10166217B2, “Fungal keratitis prophylactic or therapeutic agent” (SANTEN PHARMACEUTICAL CO., LTD., priority 2015, dated 2019).

The test system of this assay is C. albicans. In words: Test to evaluate pharmacological effect of rapamycin on animal (rabbit) model of keratomycosis. The format is in vivo, New Zealand white rabbit. Here is the method: Test to evaluate pharmacological effect of rapamycin on animal (rabbit) model of keratomycosis
4% (w/w) rapamycin solution: This sample was prepared by dissolving rapamycin (Chunghwa Chemical Synthesis & Biotech Co., Ltd.) in a solution containing 4% (w/w) ethanol and […] polyethylene glycol 400.
About 10 μL of a C. albicans solution (1×10^4 CFU/mL to 5×10^4 CFU/mL) was administered to the central corneal stroma of the right eye of a male New Zealand white rabbit of about 3 kg, and thereby an animal (rabbit) model of keratomycosis was prepared (Cornea, Volume 26, Number 3, 336-342, April 2007).
For a base administered group (Group 1; N=4), 20 μL of a base (a solution containing 4% (w/w) ethanol and 96% (w/w) polyethylene glycol 400) was administered subconjunctivally on the day of induction.
For a rapamycin administered group (Group 2; N=4), 20 μL of a 4% (w/w) rapamycin solution (0.88 mg rapamycin) was administered subconjunctivally on the day of induction.

Consider `CO[C@H]1C[C@@H]2CC[C@@H](C)[C@@](O)(O2)C(=O)C(=O)N2CCCC[C@H]2C(=O)O[C@H]([C@H](C)C[C@@H]2CC[C@@H](O)[C@H](OC)C2)CC(=O)[C@H](C)/C=C(\C)[C@@H](O)[C@@H](OC)C(=O)[C@H](C)C[C@H](C)/C=C/C=C/C=C/1C` [rapamycin], for which the “clinical scores (McDonald-Shadduck scoring system, slit lamp)” value (20 μL of 4% (w/w) rapamycin solution (0.88 mg rapamycin), single subconjunctival administration on day of induction, right eye, post-induction days 2 and 5, compared with base administered group, N=4) is reported as “lower than those of the base administered group”. Further, where the note is “single subconjunctival administration of an injection containing rapamycin, polyethylene glycol and ethanol, rabbit C. albicans keratomycosis model”, the “duration for which remarkable therapeutic effect on keratomycosis is maintained” value is on record as “at least 5 days”.
